Patent publication US10271552B2, “Heterocyclic compounds as pesticides” (Bayer CropScience Aktiengesellschaft, priority 2015, dated 2019)

How the values were obtained:
Format in all cases: in vivo
[1] = tested on: Ctenocephalides felis; assay: whole plant or invertebrate; details: po, 48 h
Protocol: Ctenocephalides felis—Oral Test
(§1) Solvent: dimethyl sulfoxide
To produce a suitable preparation of active compound, 10 mg of active compound are dissolved in 0.5 ml solvent, and the concentrate is diluted with cattle blood to the desired concentration.
Approximately 20 adult unfed cat fleas (Ctenocephalides felis) are placed in flea chambers. The blood chamber, sealed with parafilm on the bottom, are filled with cattle blood supplied with compound solution and placed on the gauze covered top of the flea chamber, so that the fleas are able to suck the blood. The blood chamber is heated to 37° C. whereas the flea chamber is kept at room temperature.
After 2 days mortality in % is determined. 100% means all the fleas have been killed; 0% means none of the fleas have been killed.

[2] = tested on: Phaedon cochleariae; assay: Phaedon cochleariae spray test; details: foliar, 168 h, Chinese cabbage leaf disks, larvae, after 7 days
Protocol: Phaedon cochleariae—Spray Test
(§2) Solvent: 78.0 parts by weight of acetone • • 1.5 parts by weight of dimethylformamide
(§3) Emulsifier: alkylarylpolyglycol ether
(§4) To produce a suitable preparation of active compound, 1 part by weight of active compound is mixed with the stated amount of solvents and is diluted with water, containing an emulsifier concentration of 1000 ppm, to the desired concentration. Further test concentrations are prepared by dilution with emulsifier containing water.
Chinese cabbage (Brassica pekinensis) leaf disks are sprayed with a preparation of the active ingredient of the desired concentration. Once dry, the leaf disks are infested with mustard beetle larvae (Phaedon cochleariae).
After 7 days mortality in % is determined. 100% means all beetle larvae have been killed and 0% means none of the beetle larvae have been killed.

[3] = tested on: Nezara viridula; assay: Nezara viridula spray test (solvent 52.5 acetone / 7 dimethylformamide); details: 96 h, barley plants, larvae, after 4 days
Protocol: Nezara viridula—Spray Test
(§5) Solvent: 52.5 parts by weight of acetone • 7 parts by weight of dimethylformamide
(§6) Emulsifier: alkylaryl polyglycolether
To produce a suitable preparation of active compound, 1 part by weight of active compound is mixed with the stated amount of solvent, and the concentrate is diluted with water, containing an emulsifier concentration of 1000 ppm, to the desired concentration. Ammonium salt and/or penetration enhancer in a dosage of 1000 ppm are added to the desired concentration if necessary.
Barley plants (Hordeum vulgare) infested with larvae of the southern green stink bug (Nezara viridula) are sprayed with a test solution containing the desired concentration of the active ingredient.
After 4 days mortality in % is determined. 100% means all the stink bugs have been killed; 0% means none of the stink bugs have been killed.

[4] = tested on: Haemonchus contortus; assay: Haemonchus contortus test; details: for larval mortality (efficacy): 20 ppm, larvae, after 5 days
Protocol: Haemonchus contortus—Test
as §1
To produce a suitable preparation of active compound, 10 mg of active compound are dissolved in 0.5 ml solvent, and the concentrate is diluted with “Ringer's solution” to the desired concentration.
Approximately 40 larvae of the red stomach worm (Haemonchus contortus) are transferred into a test tube containing compound solution.
After 5 days the percentage of larval mortality is recorded. 100% efficacy means all larvae are killed, 0% efficacy means no larvae are killed.

[5] = tested on: Tetranychus urticae; assay: Tetranychus urticae spray test OP-resistant; details: foliar, 144 h, French bean leaf disks, all instars, after 6 days
Protocol: Tetranychus urticae—Spray Test OP-Resistant
(§7) Solvent: 78.0 parts by weight acetone • 1.5 parts by weight dimethylformamide
as §3, §4
French bean (Phaseolus vulgaris) leaf disks infected with all instars of the two spotted spidermite (Tetranychus urticae), are sprayed with a preparation of the active ingredient of the desired concentration.
After 6 days mortality in % is determined. 100% means all spider mites have been killed and 0% means none of the spider mites have been killed.

[6] = tested on: Meloidogyne incognita; assay: Meloidogyne incognita test; details: 20 ppm; eggs and larvae, salad seeds in sand; after 14 days
Protocol: Meloidogyne incognita—Test
Solvent: 125.0 parts by weight of acetone
To produce a suitable preparation of active compound, 1 part by weight of active compound is mixed with the stated amount of solvent, and the concentrate is diluted with water to the desired concentration.
Vessels are filled with sand, a solution of the active ingredient, a suspension containing eggs and larvae of the southern root-knot nematode (Meloidogyne incognita) and salad seeds. The salad seeds germinate and the seedlings grow. Galls develop in the roots.
After 14 days the nematicidal activity is determined on the basis of the percentage of gall formation. 100% means no galls were found and 0% means the number of galls found on the roots of the treated plants was equal to that in untreated control plants.

[7] = tested on: Boophilus microplus; assay: Boophilus microplus injection test; details: 20 μg/animal injected; adult engorged female ticks; after 7 days
Protocol: Boophilus microplus—Injection Test
as §1
To produce a suitable preparation of active compound, 10 mg of active compound are dissolved in 0.5 ml solvent, and the concentrate is diluted with solvent to the desired concentration.
Five adult engorged female ticks (Boophilus microplus) are injected with 1 μl compound solution into the abdomen. The ticks are transferred into replica plates and incubated in a climate chamber.
After 7 days egg deposition of fertile eggs is monitored. Eggs where fertility is not visible are stored in a climate chamber till hatching after about 42 days. An efficacy of 100% means all eggs are infertile; 0% means all eggs are fertile.

[8] = tested on: Lucilia cuprina; assay: whole plant or invertebrate; details: 48 h
Protocol: as §1
10 mg active compound are dissolved in 0.5 ml Dimethylsulfoxid. Serial dilutions are made to obtain the desired rates.
Approximately 20 1st instar larvae of the Australian sheep blowfly (Lucilia cuprina) are transferred into a test tube containing minced horse meat and compound solution of the desired concentration.
After 2 days mortality in % is determined. 100% means all the larvae have been killed; 0% means none of the larvae have been killed.

[9] = tested on: Nilaparvata lugens; assay: Nilaparvata lugens spray test (solvent 52.5 acetone / 7 dimethylformamide); details: 96 h, rice plants, larvae, after 4 days
Protocol: Nilaparvata lugens—Spray Test
as §5, §6
To produce a suitable preparation of active compound, 1 part by weight of active compound is mixed with the stated amount of solvents and is diluted with water, containing an emulsifier concentration of 1000 ppm, to the desired concentration. Further test concentrations are prepared by dilution with emulsifier containing water. Ammonium salt and/or penetration enhancer in a dosage of 1000 ppm are added to the desired concentration if necessary.
Rice plants (Oryza sativa) are treated by being sprayed with the desired concentration of the active compound and are infested with larvae of the brown planthopper (Nilaparvata lugens).
After 4 days mortality in % is determined. 100% means all planthoppers have been killed and 0% means none of the planthoppers have been killed.

[10] = tested on: Diabrotica balteata; assay: Diabrotica balteata spray test; details: 160 μg/well; germinated wheat seeds, larvae; after 7 days
Protocol: Diabrotica Balteata—Spray Test
as §2, §3
To produce a suitable preparation of active compound, 1 part by weight of active compound is mixed with the stated amount of solvent, and the concentrate is diluted with water, containing an emulsifier concentration of 1000 ppm, to the desired concentration. Further test concentrations are prepared by dilution with emulsifier containing water.
Soaked wheat seeds (Triticum aestivum) are placed in a multiple well plate filled with agar and some water and are incubated for 1 day to germinate (5 seeds per well). The germinated wheat seeds are sprayed with a test solution containing the desired concentration of the active ingredient. Afterwards each unit is infected with 10-20 larvae of the banded cucumber beetle (Diabrotica balteata).
After 7 days efficacy in % is determined. 100% means all the seedlings have grown up like in the untreated, uninfected control; 0% means none of the seedlings have grown.

[11] = tested on: Myzus persicae; assay: Myzus persicae spray test; details: foliar, Chinese cabbage leaf disks, all instars, after 5-6 days
Protocol: Myzus persicae—Spray Test
as §7, §3, §4
Chinese cabbage (Brassica pekinensis) leaf disks infected with all instars of the green peach aphid (Myzus persicae), are sprayed with a preparation of the active ingredient of the desired concentration.
After 5-6 days mortality in % is determined. 100% means all aphids have been killed and 0% means none of the aphids have been killed.

[12] = tested on: Ctenocephalides felis; assay: Ctenocephalides felis in-vitro contact test, adult cat flea; details: 5 μg/cm^2 (=500 g/ha), after 48 hours
Protocol: Ctenocephalides felis—In-Vitro Contact Tests Adult Cat Flea
9 mg compound is solved in 1 ml acetone and diluted with acetone to the desired concentration. 250 μl of the test solution is filled in 25 ml glass test tubes and homogeneously distributed on the inner walls by rotation and tilting on a shaking device (2 h at 30 rpm). With a compound concentration of 900 ppm, an inner surface of 44.7 cm^2 and a homogeneous distribution, a dose of 5 μg/cm^2 is achieved.
After the solvent has evaporated, each test tube is filled with 5-10 adult cat fleas (Ctenocephalides felis), closed with a perforated lid and incubated in a lying position at room temperature and relative humidity. After 48 hours efficacy is determined. The fleas are patted on the ground of the tubes and are incubated on a heating plate at 45-50° C. for at most 5 minutes. Immotile or uncoordinated moving fleas, which are not able to escape the heat by climbing upwards, are marked as dead or moribund.
An efficacy of 100% means all fleas are dead or moribund; 0% means no fleas are dead or moribund.

[13] = tested on: Plutella xylostella; assay: Plutella xylostella spray test; details: 100 ppm; cabbage leaves, larvae; after 7 days
Protocol: Plutella xylostella—Spray Test
Solvent: 14 parts by weight of dimethylformamide
Emulsifier: alkylaryl polyglycol ether
To produce a suitable preparation of active compound, 1 part by weight of active compound is mixed with the stated amount of solvent and is diluted with water, containing an emulsifier concentration of 1000 ppm, to the desired concentration. Further test concentrations are prepared by dilution with emulsifier containing water.
Cabbage leaves (Brassica oleracea) are treated by being sprayed with the preparation of the active compound of the desired concentration and are infested with larvae of the diamondback moth (Plutella xylostella).
After 7 days, mortality in % is determined. 100% means all the caterpillars have been killed and 0% means none of the caterpillars have been killed.

Row | SMILES | mortality at 500 g/ha [2] | mortality at 500 g/ha [5] | nematicidal activity (gall formation) [6] | efficacy (infertile eggs) [7] | other results
1 | O=C(Nc1nc(-c2c(F)cccc2F)ns1)c1c(F)cccc1F [Compound I-1-1, N-[3-(2,6-difluorophenyl)-1,2,4-thiadiazol-5-yl]-2,6-difluorobenzamide] | ≥ 80% | ≥ 70% | 90% | 100% | mortality at 100 ppm [1]: 95%; mortality at 500 g/ha [3]: ≥ 90%; mortality at 20 ppm ([4]; Haemonchus contortus, 120 h, read-out: larval mortality (efficacy)): 80%
2 | O=C(Nc1nc(-c2c(F)cccc2F)ns1)c1ccccc1F [Compound I-1-2] | – | – | 100% | – | larval mortality (efficacy) [4]: 100%
3 | O=C(Nc1nc(-c2c(F)cccc2F)ns1)c1ccccc1Br [Compound I-1-5, 2-Bromo-N-[3-(2,6-difluorophenyl)-1,2,4-thiadiazol-5-yl]benzamide] | ≥ 80% | ≥ 70% | 90% | 100% | mortality at 100 ppm [8]: 70 to 100%
4 | O=C(Nc1nc(-c2c(F)cccc2F)ns1)c1cccnc1C(F)(F)F [Compound I-1-6, N-[3-(2,6-difluorophenyl)-1,2,4-thiadiazol-5-yl]-2-(trifluoromethyl)nicotinamide] | – | – | 100% | 100% | mortality at 500 g/ha [9]: ≥ 80%; efficacy (seedling growth) [10]: 80%; mortality at 100 ppm [8]: 100%; mortality at 100 ppm [1]: 100%; mortality at 500 g/ha [11]: ≥ 70%; efficacy (fleas dead or moribund) [12]: 100%
5 | O=C(Nc1nc(-c2c(F)cccc2F)ns1)c1ccccc1[N+](=O)[O-] [Compound I-1-10] | – | – | 100% | – | mortality [13]: 100%
6 | O=C(Nc1nc(-c2c(F)cccc2F)ns1)c1cccc(F)c1C(F)(F)F [Compound I-1-11] | – | – | – | 100% | mortality [13]: 100%
7 | O=C(Nc1nc(-c2c(F)cccc2F)ns1)c1cccnc1C(F)(F)F.[Na+] [Compound I-1-30, Sodium [3-(2,6-difluorophenyl)-1,2,4-thiadiazol-5-yl]{[2-(trifluoromethyl)pyridin-3-yl]carbonyl}azanide] | ≥ 80% | ≥ 70% | 100% | 100% | mortality at 500 g/ha [3]: ≥ 90%; efficacy (fleas dead or moribund) [12]: 90%
8 | O=C(Nc1nc(-c2ccc(F)cc2F)ns1)c1cccnc1C(F)(F)F [Compound I-1-56] | – | – | – | – | larval mortality (efficacy) [4]: 80%
9 | O=C(Nc1nc(-c2c(C(F)(F)F)cccc2C(F)(F)F)ns1)c1cccnc1C(F)(F)F [Compound I-1-65, N-{3-[2,6-Bis(trifluoromethyl)phenyl]-1,2,4-thiadiazol-5-yl}-2-(trifluoromethyl)nicotinamide] | – | – | – | – | mortality at 500 g/ha [9]: ≥ 80%; mortality at 500 g/ha [3]: ≥ 90%
10 | O=C(Nc1nc(-c2ncc(C(F)(F)F)cc2Cl)ns1)c1cccnc1C(F)(F)F [Compound I-2-3, N-{3-[3-Chloro-5-(trifluoromethyl)pyridin-2-yl]-1,2,4-thiadiazol-5-yl}-2-(trifluoromethyl)nicotinamide] | ≥ 80% | – | – | – | mortality at 500 g/ha [11]: ≥ 70%
11 | O=C(Nc1nc(-c2ncccc2Cl)ns1)c1ccccc1Cl [Compound I-2-6, 2-Chloro-N-[3-(3-chloropyridin-2-yl)-1,2,4-thiadiazol-5-yl]benzamide] | ≥ 80% | ≥ 70% | – | – | mortality at 500 g/ha [9]: ≥ 80%
